Holding throughout (assay): biochemical
The target of assay [1] is T1, GlmU (Mycobacterium tuberculosis, UniProt P9WMN3). Further details: DTNB colorimetric assay of GlmU acetyltransferase activity, absorbance at 405 nm.
Assay [2] has as its target T1, GlmU. Further details: Inhibition constants from double reciprocal plots, DTNB acetyltransferase assay with varied substrate.
The target in assay [3] is T1, GlmU. Further details: Inhibition constants from double reciprocal plots, DTNB acetyltransferase assay with varied substrate. This is another data set of the same source.
For assay [4], the target named is T1, GlmU. Further details: Inhibition constants from double reciprocal plots, DTNB acetyltransferase assay with varied substrate. The source holds these as a separate data set.

Structures are written as SMILES. Read-outs that look alike come from different tables or passages of the source.

T1 sequence (P9WMN3 2-495): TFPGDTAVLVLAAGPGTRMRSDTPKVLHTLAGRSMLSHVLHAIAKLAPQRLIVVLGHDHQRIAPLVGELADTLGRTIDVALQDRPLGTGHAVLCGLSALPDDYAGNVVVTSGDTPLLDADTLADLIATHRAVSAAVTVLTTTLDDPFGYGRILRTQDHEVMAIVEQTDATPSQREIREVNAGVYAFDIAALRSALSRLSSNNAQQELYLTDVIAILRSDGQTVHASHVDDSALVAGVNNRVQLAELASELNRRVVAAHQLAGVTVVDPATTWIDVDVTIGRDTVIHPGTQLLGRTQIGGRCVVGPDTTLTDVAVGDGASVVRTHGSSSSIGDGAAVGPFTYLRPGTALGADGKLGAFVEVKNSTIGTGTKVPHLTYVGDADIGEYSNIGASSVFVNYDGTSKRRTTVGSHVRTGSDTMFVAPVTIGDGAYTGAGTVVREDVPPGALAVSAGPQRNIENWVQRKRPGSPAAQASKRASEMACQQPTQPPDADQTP

`Cc1ccc(C)n1-c1ccsc1C(=O)O` [MPTC, 3-(2,5-dimethyl-1H-pyrrol-1-yl)thiophene-2-carboxylic acid] returned an IC50 in assay [1] of 159 µM.
`O=c1oc2ccccc2c2c1Sc1ccccc1N2` [BCTZ, 6,12-dihydrobenzo[b]chromeno[4,3-e][1,4]thiazin-6-one]: the Ki worked out at 81.6 µM in assay [2] and 82.8 µM in assay [3]. The same compound came in with an IC50 in assay [1] of 61.7 µM.
For `O=C1CC(=O)c2c1cccc2[N+](=O)[O-]` [NID, 4-nitroindane-1,3-dione], half-maximal inhibition in assay [1] (IC50) was put at 124 µM.
As to `O=C1C=CC(=O)N1c1cccc(N2C(=O)C=CC2=O)c1` [DHPP, 1-[3-(2,5-dioxo-2,5-dihydro-1H-pyrrol-1-yl)phenyl]-2,5-dihydro-1H-pyrrole-2,5-dione], the inhibition constant Ki in assay [4] amounted to 26.4 µM; in assay [3] it was 26.3 µM. The same compound had a concentration for half-maximal inhibition (IC50) in assay [1] of 10.3 µM.
The like results for `O=C1NC(=S)SC1=Cc1ccc(OCc2ccc([N+](=O)[O-])cc2)cc1` [NBTT, 5-{4-[(4-nitrobenzyl)oxy]benzylidene}-2-thioxo-1,3-thiazolan-4-one] were, in that order, 40.2 µM, 41.3 µM and 65.1 µM.
